Data taken from ChEMBL document CHEMBL5678818, “Discovery of potent SOS1 inhibitors that block RAS activation via disruption of the RAS-SOS1 interaction” (Proc Natl Acad Sci U S A, 2019).

How the values were obtained:
Homo sapiens = species: Homo sapiens; assay: Inhibition of ACVR1 (unknown origin) assessed as residual activity at 100 nM by KINOMEscan analysis relative to control
[1] = molecular target: T1, Mitogen-activated protein kinase kinase kinase 5 (Homo sapiens) (UniProt Q99683); assay: Inhibition of ASK1 (unknown origin) assessed as residual activity at 100 nM by KINOMEscan analysis relative to control
T1 sequence (whole entry): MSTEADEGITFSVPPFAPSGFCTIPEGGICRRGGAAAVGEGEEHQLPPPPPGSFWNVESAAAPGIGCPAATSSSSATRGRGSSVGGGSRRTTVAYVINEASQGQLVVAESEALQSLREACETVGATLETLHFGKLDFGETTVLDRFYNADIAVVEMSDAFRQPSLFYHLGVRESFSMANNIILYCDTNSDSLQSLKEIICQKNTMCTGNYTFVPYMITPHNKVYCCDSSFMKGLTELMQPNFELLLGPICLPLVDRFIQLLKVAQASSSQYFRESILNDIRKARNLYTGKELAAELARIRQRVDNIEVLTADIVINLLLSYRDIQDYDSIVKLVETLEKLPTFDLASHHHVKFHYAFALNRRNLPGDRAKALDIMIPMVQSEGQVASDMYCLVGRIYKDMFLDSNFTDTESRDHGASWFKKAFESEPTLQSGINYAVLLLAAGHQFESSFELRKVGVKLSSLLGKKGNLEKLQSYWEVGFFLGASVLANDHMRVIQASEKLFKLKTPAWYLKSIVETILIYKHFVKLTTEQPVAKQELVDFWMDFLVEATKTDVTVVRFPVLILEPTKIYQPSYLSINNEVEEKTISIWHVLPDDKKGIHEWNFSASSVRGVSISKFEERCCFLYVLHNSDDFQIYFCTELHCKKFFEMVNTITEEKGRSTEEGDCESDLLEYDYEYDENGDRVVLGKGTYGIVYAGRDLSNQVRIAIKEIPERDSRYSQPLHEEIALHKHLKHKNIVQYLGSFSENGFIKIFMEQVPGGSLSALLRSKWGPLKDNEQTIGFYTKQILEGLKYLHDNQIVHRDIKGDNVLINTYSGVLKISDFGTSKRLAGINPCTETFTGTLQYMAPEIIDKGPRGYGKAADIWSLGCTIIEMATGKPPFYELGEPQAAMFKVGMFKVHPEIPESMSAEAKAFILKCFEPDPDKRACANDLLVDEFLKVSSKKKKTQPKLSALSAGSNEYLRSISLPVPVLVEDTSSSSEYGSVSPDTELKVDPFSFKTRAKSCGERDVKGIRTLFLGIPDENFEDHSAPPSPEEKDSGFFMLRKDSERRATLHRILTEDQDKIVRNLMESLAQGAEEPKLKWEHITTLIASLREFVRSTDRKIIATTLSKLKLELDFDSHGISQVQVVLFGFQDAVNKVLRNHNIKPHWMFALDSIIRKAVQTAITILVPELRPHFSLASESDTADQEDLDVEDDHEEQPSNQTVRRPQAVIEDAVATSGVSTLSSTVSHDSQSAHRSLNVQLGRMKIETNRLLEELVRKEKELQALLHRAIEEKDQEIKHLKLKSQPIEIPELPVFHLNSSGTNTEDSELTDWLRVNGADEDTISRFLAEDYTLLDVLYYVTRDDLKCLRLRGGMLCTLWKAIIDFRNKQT

[2] = molecular target: Calcium/calmodulin-dependent protein kinase type II subunit alpha (Homo sapiens) (UniProt Q9UQM7); assay: Inhibition of CAMK2A (unknown origin) assessed as residual activity at 100 nM by KINOMEscan analysis relative to control
Sequence of Calcium/calmodulin-dependent protein kinase type II subunit alpha (Homo sapiens) (Q9UQM7 whole entry): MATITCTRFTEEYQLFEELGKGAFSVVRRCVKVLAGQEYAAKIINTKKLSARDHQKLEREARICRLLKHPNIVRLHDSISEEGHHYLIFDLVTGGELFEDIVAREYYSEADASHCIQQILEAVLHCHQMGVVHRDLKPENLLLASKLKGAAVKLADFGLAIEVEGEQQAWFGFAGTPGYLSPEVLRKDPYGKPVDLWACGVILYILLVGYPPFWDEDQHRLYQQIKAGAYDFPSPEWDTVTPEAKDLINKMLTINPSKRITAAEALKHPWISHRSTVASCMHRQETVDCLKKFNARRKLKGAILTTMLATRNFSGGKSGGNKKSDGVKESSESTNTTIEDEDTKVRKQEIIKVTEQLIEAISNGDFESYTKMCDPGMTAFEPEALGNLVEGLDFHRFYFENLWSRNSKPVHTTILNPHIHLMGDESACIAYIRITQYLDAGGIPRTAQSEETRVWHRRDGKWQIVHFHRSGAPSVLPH

[3] = test system: Epidermal growth factor receptor (Homo sapiens), P00533 [G719C]; assay: Inhibition of EGFR G719C mutant (unknown origin) assessed as residual activity at 100 nM by KINOMEscan analysis relative to control
[4] = molecular target: G protein-coupled receptor kinase 4 (Homo sapiens) (UniProt P32298); assay: Inhibition of GRK4 (unknown origin) assessed as residual activity at 100 nM by KINOMEscan analysis relative to control
Sequence of G protein-coupled receptor kinase 4 (Homo sapiens) (P32298 whole entry, looked up): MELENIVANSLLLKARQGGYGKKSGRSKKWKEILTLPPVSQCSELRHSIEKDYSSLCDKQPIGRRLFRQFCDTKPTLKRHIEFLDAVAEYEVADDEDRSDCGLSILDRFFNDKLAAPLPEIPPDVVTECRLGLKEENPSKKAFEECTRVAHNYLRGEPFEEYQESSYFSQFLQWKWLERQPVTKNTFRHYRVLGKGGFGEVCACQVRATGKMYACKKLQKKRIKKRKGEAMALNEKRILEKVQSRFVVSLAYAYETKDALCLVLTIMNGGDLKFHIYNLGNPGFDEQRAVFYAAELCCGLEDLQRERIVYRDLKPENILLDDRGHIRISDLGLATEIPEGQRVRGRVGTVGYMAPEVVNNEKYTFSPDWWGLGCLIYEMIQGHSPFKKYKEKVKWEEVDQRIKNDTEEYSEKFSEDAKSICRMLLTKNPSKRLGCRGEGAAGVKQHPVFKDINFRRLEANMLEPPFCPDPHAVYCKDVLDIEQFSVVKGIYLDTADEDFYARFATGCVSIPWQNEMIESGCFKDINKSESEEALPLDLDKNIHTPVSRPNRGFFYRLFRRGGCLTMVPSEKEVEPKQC

[5] = molecular target: Serine/threonine-protein kinase MRCK beta (Homo sapiens) (UniProt Q9Y5S2); assay: Inhibition of MRCKB (unknown origin) assessed as residual activity at 100 nM by KINOMEscan analysis relative to control
[6] = molecular target: T2, Serine/threonine-protein kinase Nek11 (Homo sapiens) (UniProt Q8NG66); assay: Inhibition of NEK11 (unknown origin) assessed as residual activity at 100 nM by KINOMEscan analysis relative to control
T2 sequence (whole entry): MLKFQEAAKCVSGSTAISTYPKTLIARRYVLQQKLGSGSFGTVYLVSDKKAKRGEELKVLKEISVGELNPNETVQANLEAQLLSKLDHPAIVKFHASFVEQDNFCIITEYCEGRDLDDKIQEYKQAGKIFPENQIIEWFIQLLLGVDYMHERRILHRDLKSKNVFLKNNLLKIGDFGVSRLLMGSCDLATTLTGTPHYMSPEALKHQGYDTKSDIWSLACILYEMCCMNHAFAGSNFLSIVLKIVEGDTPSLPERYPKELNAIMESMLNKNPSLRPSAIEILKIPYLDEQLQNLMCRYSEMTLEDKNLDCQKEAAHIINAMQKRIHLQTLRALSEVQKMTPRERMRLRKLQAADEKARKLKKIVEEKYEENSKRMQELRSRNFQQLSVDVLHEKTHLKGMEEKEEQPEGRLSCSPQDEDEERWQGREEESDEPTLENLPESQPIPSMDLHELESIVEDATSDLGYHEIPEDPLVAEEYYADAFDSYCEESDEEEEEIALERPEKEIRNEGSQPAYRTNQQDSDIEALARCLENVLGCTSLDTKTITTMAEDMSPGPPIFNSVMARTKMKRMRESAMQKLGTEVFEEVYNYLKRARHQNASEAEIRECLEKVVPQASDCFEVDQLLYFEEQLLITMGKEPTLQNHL

[7] = molecular target: Mitogen-activated protein kinase 11 (Homo sapiens) (UniProt Q15759); assay: Inhibition of p38-beta (unknown origin) assessed as residual activity at 100 nM by KINOMEscan analysis relative to control
Sequence of Mitogen-activated protein kinase 11 (Homo sapiens) (Q15759 whole entry): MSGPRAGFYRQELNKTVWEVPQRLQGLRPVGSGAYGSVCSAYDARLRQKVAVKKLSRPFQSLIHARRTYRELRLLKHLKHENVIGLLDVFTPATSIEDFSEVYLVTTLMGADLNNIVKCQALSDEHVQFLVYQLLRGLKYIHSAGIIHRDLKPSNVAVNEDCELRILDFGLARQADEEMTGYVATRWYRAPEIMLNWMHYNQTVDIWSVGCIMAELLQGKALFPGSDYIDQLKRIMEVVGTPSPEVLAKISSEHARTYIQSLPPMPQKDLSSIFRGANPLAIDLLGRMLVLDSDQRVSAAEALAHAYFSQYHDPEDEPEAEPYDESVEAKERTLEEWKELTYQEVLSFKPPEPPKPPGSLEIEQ

[8] = molecular target: Platelet-derived growth factor receptor alpha (Homo sapiens) (UniProt P16234); assay: Inhibition of PDGFRA (unknown origin) assessed as residual activity at 100 nM by KINOMEscan analysis relative to control
Sequence of Platelet-derived growth factor receptor alpha (Homo sapiens) (P16234 whole entry): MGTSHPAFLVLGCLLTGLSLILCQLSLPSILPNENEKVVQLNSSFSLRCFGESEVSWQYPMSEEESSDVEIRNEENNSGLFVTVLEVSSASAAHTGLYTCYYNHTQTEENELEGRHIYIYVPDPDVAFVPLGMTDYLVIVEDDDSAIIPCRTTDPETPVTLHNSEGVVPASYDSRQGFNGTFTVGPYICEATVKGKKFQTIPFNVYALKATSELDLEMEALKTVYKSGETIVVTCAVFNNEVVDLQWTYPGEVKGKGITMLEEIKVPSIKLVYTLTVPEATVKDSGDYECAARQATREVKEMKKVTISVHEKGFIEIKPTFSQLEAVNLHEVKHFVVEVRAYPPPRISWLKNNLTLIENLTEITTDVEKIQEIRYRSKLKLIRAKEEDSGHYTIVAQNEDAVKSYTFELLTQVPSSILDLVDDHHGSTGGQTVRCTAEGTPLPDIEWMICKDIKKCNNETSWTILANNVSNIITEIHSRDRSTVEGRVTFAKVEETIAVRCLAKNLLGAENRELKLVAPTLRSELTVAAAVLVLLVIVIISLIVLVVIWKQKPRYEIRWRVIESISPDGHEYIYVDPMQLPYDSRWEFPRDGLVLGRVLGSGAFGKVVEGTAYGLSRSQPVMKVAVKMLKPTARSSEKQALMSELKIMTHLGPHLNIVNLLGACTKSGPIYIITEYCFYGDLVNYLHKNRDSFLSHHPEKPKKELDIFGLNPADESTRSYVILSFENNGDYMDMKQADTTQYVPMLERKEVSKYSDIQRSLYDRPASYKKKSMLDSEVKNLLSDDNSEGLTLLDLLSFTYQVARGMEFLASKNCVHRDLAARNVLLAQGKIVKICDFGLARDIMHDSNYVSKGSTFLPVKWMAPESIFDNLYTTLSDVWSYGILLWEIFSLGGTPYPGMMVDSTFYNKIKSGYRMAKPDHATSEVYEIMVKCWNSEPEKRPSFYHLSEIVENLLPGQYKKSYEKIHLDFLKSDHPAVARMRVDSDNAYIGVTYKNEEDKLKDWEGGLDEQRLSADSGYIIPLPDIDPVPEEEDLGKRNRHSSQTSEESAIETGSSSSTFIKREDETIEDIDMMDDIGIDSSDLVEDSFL

[9] = molecular target: Serine/threonine-protein kinase pim-3 (Homo sapiens) (UniProt Q86V86); assay: Inhibition of PIM3 (unknown origin) assessed as residual activity at 100 nM by KINOMEscan analysis relative to control
[10] = molecular target: Interferon-induced, double-stranded RNA-activated protein kinase (Homo sapiens) (UniProt P19525); assay: Inhibition of PRKR (unknown origin) assessed as residual activity at 100 nM by KINOMEscan analysis relative to control
Sequence of Interferon-induced, double-stranded RNA-activated protein kinase (Homo sapiens) (P19525 whole entry): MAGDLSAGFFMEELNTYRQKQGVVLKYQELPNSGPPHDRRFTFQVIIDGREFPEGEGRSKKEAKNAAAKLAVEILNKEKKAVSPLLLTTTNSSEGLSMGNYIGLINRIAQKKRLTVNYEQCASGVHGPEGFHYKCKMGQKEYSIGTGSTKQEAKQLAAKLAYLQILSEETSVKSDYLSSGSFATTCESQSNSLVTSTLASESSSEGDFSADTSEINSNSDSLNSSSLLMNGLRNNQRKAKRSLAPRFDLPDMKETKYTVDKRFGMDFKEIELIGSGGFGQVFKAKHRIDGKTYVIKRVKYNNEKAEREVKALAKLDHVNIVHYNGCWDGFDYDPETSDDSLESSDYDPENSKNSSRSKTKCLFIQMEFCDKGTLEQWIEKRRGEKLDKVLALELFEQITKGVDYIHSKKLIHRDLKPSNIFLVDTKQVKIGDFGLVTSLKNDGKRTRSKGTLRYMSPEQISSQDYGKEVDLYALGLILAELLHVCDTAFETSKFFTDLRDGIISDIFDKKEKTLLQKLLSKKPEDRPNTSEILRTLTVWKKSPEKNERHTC

[11] = molecular target: Rho-associated protein kinase 2 (Homo sapiens) (UniProt O75116); assay: Inhibition of ROCK2 (unknown origin) assessed as residual activity at 100 nM by KINOMEscan analysis relative to control
Sequence of Rho-associated protein kinase 2 (Homo sapiens) (O75116 whole entry, looked up): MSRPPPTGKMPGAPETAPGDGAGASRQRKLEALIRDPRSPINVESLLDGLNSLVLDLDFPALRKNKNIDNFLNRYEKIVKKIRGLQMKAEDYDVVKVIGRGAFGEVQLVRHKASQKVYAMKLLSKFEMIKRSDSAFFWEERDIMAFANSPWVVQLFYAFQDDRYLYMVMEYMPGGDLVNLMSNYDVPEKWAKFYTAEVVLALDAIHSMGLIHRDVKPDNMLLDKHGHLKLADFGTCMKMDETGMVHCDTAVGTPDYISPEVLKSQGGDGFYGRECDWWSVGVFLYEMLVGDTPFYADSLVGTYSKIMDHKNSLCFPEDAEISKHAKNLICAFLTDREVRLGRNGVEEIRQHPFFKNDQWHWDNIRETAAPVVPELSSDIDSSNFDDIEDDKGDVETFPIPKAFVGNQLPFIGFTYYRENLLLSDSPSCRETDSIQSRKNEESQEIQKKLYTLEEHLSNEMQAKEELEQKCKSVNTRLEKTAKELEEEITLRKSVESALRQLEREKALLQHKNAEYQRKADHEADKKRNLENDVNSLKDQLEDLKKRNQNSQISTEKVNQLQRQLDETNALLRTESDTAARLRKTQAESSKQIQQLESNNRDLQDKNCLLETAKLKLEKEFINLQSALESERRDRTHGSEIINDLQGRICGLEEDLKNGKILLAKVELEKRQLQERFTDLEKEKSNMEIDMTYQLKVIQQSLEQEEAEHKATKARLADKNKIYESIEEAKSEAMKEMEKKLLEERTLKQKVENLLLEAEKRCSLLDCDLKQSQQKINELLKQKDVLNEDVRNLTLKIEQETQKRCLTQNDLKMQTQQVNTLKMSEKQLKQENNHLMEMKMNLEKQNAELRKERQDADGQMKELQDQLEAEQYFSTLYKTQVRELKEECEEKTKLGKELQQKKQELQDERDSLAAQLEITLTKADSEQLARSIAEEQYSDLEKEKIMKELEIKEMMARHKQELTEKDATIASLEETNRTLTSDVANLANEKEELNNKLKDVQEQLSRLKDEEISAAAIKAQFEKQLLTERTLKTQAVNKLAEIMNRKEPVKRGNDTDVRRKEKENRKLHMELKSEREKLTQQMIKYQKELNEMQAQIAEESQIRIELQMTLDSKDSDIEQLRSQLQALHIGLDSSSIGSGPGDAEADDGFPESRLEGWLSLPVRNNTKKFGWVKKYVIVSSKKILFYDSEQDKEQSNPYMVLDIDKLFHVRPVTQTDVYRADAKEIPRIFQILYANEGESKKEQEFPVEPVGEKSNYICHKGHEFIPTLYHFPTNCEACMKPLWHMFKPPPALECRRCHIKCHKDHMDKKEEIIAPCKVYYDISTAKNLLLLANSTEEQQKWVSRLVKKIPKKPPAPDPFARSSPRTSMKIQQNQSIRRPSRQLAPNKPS

In the case of `COc1cc2ncnc(N[C@H](C)c3cccc4ccccc34)c2cc1OC`, the Activity (Homo sapiens) is reported as 83%, the Activity [1] is reported as 70% and the Activity [2] is reported as 96%. The Activity [3] was 89%, the Activity [4] was 62% and the Activity [5] was 82%. It also gave an Activity [6] of 79%, an Activity [7] of 81% and an Activity [8] of 100%. It also gave an Activity [9] of 87%, an Activity [10] of 100% and an Activity [11] of 87%.
